The results in this text go back to ChEMBL document CHEMBL3045361, “Novel GABA-AT inhibitors: QSAR and docking based virtual screening of phenyl substituted -phenyl ethylidene hydrazine analogues” (Med Chem Res, 2011).

Broadly, the inhibition is the percentage by which the read-out fell short of the control.

The target in this test is 4-aminobutyrate aminotransferase, mitochondrial (Homo sapiens) (UniProt P80404). Description: Inhibition of GABA-AT (unknown origin). Also on record: concentration or dose not given beside the values. As to conditions: concentration not given here.
Sequence of 4-aminobutyrate aminotransferase, mitochondrial (Homo sapiens) (P80404 whole entry): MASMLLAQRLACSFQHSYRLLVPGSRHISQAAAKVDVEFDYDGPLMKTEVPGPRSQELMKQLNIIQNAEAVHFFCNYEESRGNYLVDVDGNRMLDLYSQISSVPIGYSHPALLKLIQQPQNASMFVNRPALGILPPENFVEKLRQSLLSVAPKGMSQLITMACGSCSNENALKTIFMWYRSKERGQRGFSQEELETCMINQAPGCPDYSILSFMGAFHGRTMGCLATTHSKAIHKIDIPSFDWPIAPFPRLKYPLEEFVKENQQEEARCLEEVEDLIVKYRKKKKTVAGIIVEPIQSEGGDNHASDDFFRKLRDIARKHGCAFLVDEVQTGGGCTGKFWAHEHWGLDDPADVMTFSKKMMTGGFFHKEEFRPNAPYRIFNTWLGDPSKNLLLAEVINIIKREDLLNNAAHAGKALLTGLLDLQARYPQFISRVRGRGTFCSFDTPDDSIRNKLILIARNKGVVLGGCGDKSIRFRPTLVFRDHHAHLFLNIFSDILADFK

`N/N=C/Cc1cccc(C(F)(F)F)c1` registered an inhibition of 76%.

In the case of `COc1ccccc1C/C=N/N`, the inhibition was found to be 60.1%.

Take `N/N=C/Cc1ccccc1F`: the inhibition came out at 62.9%.

As to `N/N=C/Cc1cccc(F)c1`, the inhibition came to 72.5%.

For `N/N=C/Cc1cccc(Cl)c1`, the inhibition stood at 74.9%.

In turn, `Cc1cccc(C/C=N/N)c1` gave an inhibition of 75.4%.

Molecule `N/N=C/Cc1ccccc1` showed an inhibition of 75.4%.

In the case of `COc1cccc(C/C=N/N)c1`, the inhibition was found to be 77.6%.

`N/N=C/Cc1ccc(F)cc1` registered an inhibition of 61.6%.

As for `Cc1ccccc1C/C=N/N`, the inhibition turned out to be 51.3%.

For `N/N=C/Cc1ccc(Cl)cc1`, the inhibition was found to be 54.2%.

In turn, `N/N=C/Cc1ccccc1Cl` returned an inhibition of 56.1%.

`Cc1ccc(C/C=N/N)cc1` displayed an inhibition of 70.4%.

As to `N/N=C/Cc1ccc(C(F)(F)F)cc1`, the inhibition was 33.2%.

Consider `N/N=C/Cc1ccc(Cl)cc1Cl`, for which the inhibition turned out to be 59%.

`COc1ccc(C/C=N/N)cc1`: the inhibition came to 66.6%.

In the case of `N/N=C/Cc1ccccc1C(F)(F)F`, the inhibition turned out to be 46.3%.
